Regarding `CC(=O)N1CCC(C(=O)N2CC[C@@H](N(C)C(=O)c3ccc(Br)cn3)[C@H](c3ccc(Cl)c(Cl)c3)C2)CC1`, the melting point fell in the range of 128 to 130 °C.

`CC(C)(C)OC(=O)CN(C(=O)CN1C(=O)c2ccccc2C1=O)c1ccc2c(c1)OCO2` came in with a melting point of 166 °C.

With `Cc1ccc(S(=O)(=O)OC[C@H]2CC[C@H](c3ccccc3)CC2)cc1`, the melting point lay within 108 to 109 °C.

Regarding `COC(=O)C=C(Nc1ccc(CC(=O)OC)cc1)C(F)(F)F`, the melting point was in the range of 50 to 51 °C.

Compound `CCC1(O)CC(=O)OCc2c1cc1n(c2=O)Cc2c-1nc1ccccc1c2Cc1ccccc1` (configuration not stated) displayed a melting point greater than 250 °C.

`CSc1nccc(Oc2ccc(NC(=O)c3cc(F)cc(OC4CCCCC4)c3)c3ccccc23)n1`: the melting point is 130 to 132 °C.

Compound `CCOC(=O)N1CCN(c2ccc(-n3cnn(C(C)(C)C(O)c4ccc(Cl)cc4)c3=O)cc2)CC1` (configuration not stated) yielded a melting point of 108 °C.

In turn, `CC(C)(Oc1cccc2ccccc12)C(=O)Nc1ccc(C(=O)O)cc1` registered a melting point of 155 °C.

The compound `O=c1oc(=O)n(Cc2cccs2)c2ccccc12` had a melting point of 137 to 140 °C.

Regarding `O=C1NC(N2CCCCCC2)=N/C1=C\c1c[nH]c2ncc(Cl)cc12`, the melting point lay within 310 to 320 °C.

`Cc1cc(Cc2nnc(Nc3ccc(Cl)cc3)c3ccccc23)ccn1` gave a melting point of 183 to 184 °C.

`C#CCOc1ccc2ccc(NC(=O)c3ccc(OC)cc3)nc2n1` came in with a melting point of 140 °C.

As for `C=C(C)COc1ccc(Br)cc1CN(CC)c1ccc(C(=O)NS(=O)(=O)c2scnc2C)nn1`, the melting point was 128 °C.

`C=C1C[C@@H]2[C@H](CC[C@]3(C)C(=O)CC[C@@H]23)[C@@]2(C)CCC(=O)C(SCC)=C12` showed a melting point of 140 to 145 °C.

In turn, `O=Cc1ccc(C(=O)Nc2ccncc2)cc1` came in with a melting point of 161 °C.

In turn, `CC(SC(=O)c1ccccc1)C(=O)N(CC(=O)O)C1CC1` (configuration not stated) showed a melting point of 140 to 143 °C.

On to `CC1(C)CC(=O)c2c(S(C)(=O)=O)sc(-c3cc[nH]n3)c2C1`, for which the melting point fell in the range of 213 to 216 °C.

In turn, `CC(C)NCC(O)COc1ccc(-c2cc3ncccc3c(=O)n2C)cc1` (configuration not stated) displayed a melting point of 135 to 139 °C.

Turning to `O=C(NC[C@H]1CN(c2ccc3c(c2)CCCc2cn[nH]c2-3)C(=O)O1)c1ccccc1`, the melting point lay in the range of 105 to 125 °C.

`CC(C)(C)N(Cc1ccccc1)CC(O)c1ccc(OCc2ccccc2)c(N)c1` (configuration not stated) yielded a melting point of 68 to 69 °C.

The compound `O=c1ccc(S(=O)(=O)c2oc3ccc(Cl)cc3c2-c2ccccc2)n[nH]1` registered a melting point greater than 240 °C.

For `CCC(Oc1ccc2ccccc2c1)C(=O)OC1CC(O)C=C2C=CC(C)C(CCC3CC(O)CC(=O)O3)C21` (mixture of isomers), the melting point lay within 124 to 127 °C.

Turning to `O=C(NCCCC(CCCNC(=O)c1ccccc1)OC(F)(F)F)c1ccccc1`, the melting point fell in the range of 115 to 118 °C.

On to `COC(=O)C(Cc1ccc(O)cc1)OC` (configuration not stated), for which the melting point fell in the range of 61 to 63 °C.

For `CCOC(=O)c1cn2c3c(c(-c4ccccc4)ccc3c1=O)OCC2C` (configuration not stated), the melting point was 246 °C.

The compound `CCCCCc1nnc(Sc2cc(O)c(C(C)(C)CC(C)(C)C)cc2O)n1-c1ccccc1` showed a melting point of 198 °C.

The compound `CCCCCCCCCCCCCCOCC(CCC(=O)N(C)C)(CCC(=O)N(C)C)COCCCCCCCCCCCCCC` displayed a melting point of 47 to 49 °C.

Regarding `Oc1ccc(Oc2cccc(-c3nnc(Nc4ccc(Cl)c(Cl)c4)s3)c2)cc1`, the melting point fell in the range of 224 to 226 °C.

In turn, `CCS(=O)(=O)Nc1cc(-n2ncc(=O)n(C)c2=O)c(F)cc1C#N` came in with a melting point of 233 °C.

`C#CCN(C(C)C)S(=O)(=O)NC(=O)c1cc(-n2c(=O)cc(C(F)(F)F)n(C)c2=S)c(F)cc1Cl`: the melting point was in the range of 94 to 105 °C.

As to `CN(C)c1nc(N(C)C)c2nnn(Cc3ccccc3F)c2n1`, the melting point fell in the range of 123 to 125 °C.

`O=S(=O)(Nc1nccnc1OCc1ccc(CO)cc1)c1cccc(Cl)c1Cl` yielded a melting point of 160 to 161 °C.

As a reminder, the melting point is the temperature of the solid-liquid transition.

The values are drawn from a melting point compilation (Tetko et al.; mined from patent text by program, amines drawn as free bases though some values may be those of a salt).
